Marks after values point to notes of the source that are not given here.
How the values were obtained:
[1] = system: osteoblasts; assay: Calcium deposition assay (alizarin red method); assay type: cell-based; settings: for calcium deposition of osteoblasts (in words): lower / low concentration; for ARS concentration / calcium nodule size: 5 d, n = 4, x ± s
Description: Next, each well is added with 1 mL extract (extract preparation: 800 mL 10% acetic acid with 200 mL anhydrous ethyl alcohol), and extracted for 30 min-45 min, kept in dark, shaken slightly, the absorbance of 450 nm wavelength is measured and recorded. […] As alizarin red S and calcium are linear correlated, the calcium deposition is evaluated according to the alizarin red S concentration.

[2] = system: osteoblasts MG63; assay: Osteoblast proliferation, MTT method; assay type: cell-based; settings: for effect on MG63 cell proliferation (in words): cocultured 72 h, P<0.05 vs control groups; for Cell proliferation (MTT method), absorbance value under 490 nm: MG63, n = 4, x ± s
Description: MTT method is used to evaluate the effects of the drug on the activity of proliferation of osteoblasts MG63, wherein each well of 96-well plate is added with fresh MTT (5 mg/mL) 100 μL, incubated under 37° C. for 4 h, and vibrated every a period of time, then the supernatant is removed, and each well is added with 200 μL DMSO (DMSO, Sigma corp.), and vibrated on micro-oscillator for 10 min, and equivalent amount of liquid is transferred to an new plate, and the absorbance value under 490 nm is measured, referring to table 1.

[3] = system: osteoclasts; assay: Osteoclast cell formation, counting of TRAP staining positive cells; assay type: cell-based, Japanese White Rabbit; settings: for OC cell formation, TRAP staining positive cells counted: n = 6, x ± s
Description: (§1) The osteoclasts is cultured using a modified Chambers method, the new-born Japanese White Rabbit (1 week-age, provided by Experimental Animal Center of West China Medical Center of Sichuan University) is sacrificed by neck dislocation, and dipped in 75% ethanol for 5 min, long bones are taken out under sterile condition, and soft tissue, periosteum as well as osteoepiphysis on the bone surface are removed in D-Hanks balanced salt solution, clean the bone shaft with α-MEM 2 times, and then cut off the long bone longitudinally in α-MEM full media (containing 15% fetal calf serum, penicillin 100 U/mL, streptomycin […], 25 m MHEPES, pH 7.0-7.2), scrape the medullar cavity of the bone gently until it is clean, and use a pipette (5 mL syringe, 25 G syringe needle) to rinse the medullar cavity repeatedly with culture media, and then the rinse solution is collected and filtered with cell strainer to remove bone fragment, and centrifuged at 1000 rpm for 5 min, the precipitate is suspended by 10 mL α-MEM, a hematocytometer is used for cell counting, the cell density in suspension is adjusted to 1×10^7/mL, and inoculate the cells in 6-well plates, and co-cultured with glass slide or bone slice, after 60 min the culture media was replaced with α-MEM induction culture media (containing 15% fetal bovine serum, 10 nM 1, 25-(OH)2VitD3, penicillin 100 U/mL, streptomycin 100 μg/mL, 25 mM HEPES, pH 7.0-7.2), the culture media is replaced every 3 days.
Each group of osteoclasts is performed with tartrate-resistant acid phosphatase (TRAP) staining, observed in optical microscope, and the TRAP staining positive cells are counted.

[4] = system: osteoclasts; assay: Osteoclastic absorption, resorption pit size on bone slices; assay type: cell-based, Japanese White Rabbit; settings: for formation and size of resorption pit of the osteoclast: 5 days' culture, n = 6, x ± s
Description: as §1

[5] = relative to Etidronate; cited from earlier work

## O=c1c2ccccc2sn1-c1ccc(CC(P(=O)(O)O)P(=O)(O)O)cc1 [SC-15, 4-(3-carbonylbenzo[d][1,2]sulfonazole-2(3H))-benzyl-methylene diphosphonic acid]
[1]
  calcium deposition of osteoblasts (in words): increases the calcium deposition of osteoblasts obviously

## O=c1c2cc(Cl)ccc2[se]n1-c1ccc(CC(P(=O)(O)O)P(=O)(O)O)cc1 [SC-9, 4-(3-carbonyl-5-chlorobenzo[d][1,2]selenazole-2(3H))-benzyl-methylene diphosphonic acid]
[1]
  calcium deposition of osteoblasts (in words): increases the calcium deposition of osteoblasts obviously

## O=c1c2ccccc2[se]n1-c1ccc(CC(P(=O)(O)O)P(=O)(O)O)cc1 [SC-1, 4-(3-carbonylbenzo[d][1,2]selenazole-2(3H))-benzyl-methylene diphosphonic acid]
[1]
  calcium deposition of osteoblasts (in words): increases the calcium deposition of osteoblasts obviously
[2]; 10^−9 mol/L
  effect on MG63 cell proliferation (in words): enhance MG63 cell proliferation

## NCCCC(O)(P(=O)(O)O)P(=O)(O)O [Alen, alendronate sodium, reference compound]
[1]
  calcium deposition of osteoblasts (in words): not found that Alen group of low concentration can enhance the calcium deposition of osteoblasts
[3]; all concentrations
  formation of osteoclasts compared with blank (in words): can inhibit the formation of osteoclasts
[2]; 10^−5, 10^−7 mol/L for 72 h, P<0.01 vs control groups
  cell proliferation activity (in words): cell proliferation activity is inhibited in different degrees
[2]; range of concentrations, within 48 h
  influence on proliferation of MG63 cells (in words): no influence on proliferation of MG63 cells
[4]; p<0.01
  resorption pits size compared with blank (in words): decrease obviously

## 4-(3-carbonylcyclohexano[d][1,2]selenazole-2(3H))-benzyl-1-hydroxyl-methylenediphosphonic acid [SC-8]
[1]; 10^−5 mol/L
  ARS concentration: 309 ± 13 µg/mL
  calcium nodule size: 1.32 ± 0.11 mm^2
[1]; 10^−7 mol/L
  ARS concentration: 354 ± 23 µg/mL
  calcium nodule size: 1.66 ± 0.16 mm^2
[1]; 10^−9 mol/L
  ARS concentration: 395 ± 17 µg/mL
  calcium nodule size: 1.96 ± 0.19* mm^2
[3]; 10^−5 mol/L, 3 d
  OC cell formation, TRAP staining positive cells counted: 6 ± 2
[3]; 10^−5 mol/L, 5 d
  OC cell formation, TRAP staining positive cells counted: 9 ± 2
[3]; 10^−7 mol/L, 3 d
  OC cell formation, TRAP staining positive cells counted: 10 ± 2
[3]; 10^−7 mol/L, 5 d
  OC cell formation, TRAP staining positive cells counted: 15 ± 4
[3]; 10^−9 mol/L, 3 d
  OC cell formation, TRAP staining positive cells counted: 12 ± 3
[3]; 10^−9 mol/L, 5 d
  OC cell formation, TRAP staining positive cells counted: 21 ± 6
[2]; 10^−5 mol/L, 24 h
  Cell proliferation (MTT method), absorbance value under 490 nm: 0.376 ± 0.009
[2]; 10^−5 mol/L, 48 h
  Cell proliferation (MTT method), absorbance value under 490 nm: 0.412 ± 0.007
[2]; 10^−5 mol/L, 72 h
  Cell proliferation (MTT method), absorbance value under 490 nm: 0.342 ± 0.008
[2]; 10^−7 mol/L, 24 h
  Cell proliferation (MTT method), absorbance value under 490 nm: 0.373 ± 0.010
[2]; 10^−7 mol/L, 48 h
  Cell proliferation (MTT method), absorbance value under 490 nm: 0.439 ± 0.012
[2]; 10^−7 mol/L, 72 h
  Cell proliferation (MTT method), absorbance value under 490 nm: 0.709 ± 0.010
[2]; 10^−9 mol/L, 24 h
  Cell proliferation (MTT method), absorbance value under 490 nm: 0.355 ± 0.009
[2]; 10^−9 mol/L, 48 h
  Cell proliferation (MTT method), absorbance value under 490 nm: 0.421 ± 0.008
[2]; 10^−9 mol/L, 72 h
  Cell proliferation (MTT method), absorbance value under 490 nm: 0.773 ± 0.013
[2]; 10^−9 mol/L
  effect on MG63 cell proliferation (in words): enhance MG63 cell proliferation
[4]; 10^−5 mol/L
  formation and size of resorption pit of the osteoclast: 12.23 ± 3.06
[4]; 10^−7 mol/L
  formation and size of resorption pit of the osteoclast: 64.45 ± 8.77
[4]; 10^−9 mol/L
  formation and size of resorption pit of the osteoclast: 118.25 ± 14.73

## O=c1c2ccccc2[se]n1Cc1ccc(CC(P(=O)(O)O)P(=O)(O)O)cc1 [SC-11, 4-(2-methylbenzo[d][1,2]selenazole-3 (2H)-ketone)-benzyl-methylene diphosphonic acid]
[1]
  calcium deposition of osteoblasts (in words): increases the calcium deposition of osteoblasts obviously

## O=P(O)(O)C(O)(Cn1ccnc1)P(=O)(O)O [Zoledronate]
[5]
  bone affinity, times stronger than Etidronate: over 10000 times

## O=c1c2ccccc2[se]n1-c1ccc(CCC(P(=O)(O)O)P(=O)(O)O)cc1 [SC-13, 4-(3-carbonylbenzo[d][1,2]selenazole-2(3H))-phenylethyl-methylenediphosphonic acid]
[1]
  calcium deposition of osteoblasts (in words): increases the calcium deposition of osteoblasts obviously

## O=c1c2ccccc2[se]n1-c1ccc(CCC(O)(P(=O)(O)O)P(=O)(O)O)cc1 [SC-14, 4-(3-carbonylbenzo[d][1,2]selenazole-2(3H))-phenylethyl-1-hydroxyl-methylene diphosphonic acid]
[1]
  calcium deposition of osteoblasts (in words): increases the calcium deposition of osteoblasts obviously

## O=c1c2ccccc2[se]n1-c1ccc(CC(O)(P(=O)(O)O)P(=O)(O)O)cc1 [SC-2, 4-(3-carbonylbenzo[d][1,2]selenazole-2(3H))-benzyl-methylene-1-hydroxyl-methylene diphosphonic acid]
[1]
  calcium deposition of osteoblasts (in words): increases the calcium deposition of osteoblasts obviously
[2]; 10^−9 mol/L
  effect on MG63 cell proliferation (in words): enhance MG63 cell proliferation

## O=c1c2ccccc2[se]n1Cc1ccc(CC(O)(P(=O)(O)O)P(=O)(O)O)cc1 [SC-12, 4-(2-methylbenzo[d][1,2]selenazole-3 (2H)-ketone)-benzyl-1-hydroxyl-methylene diphosphonic acid]
[1]
  calcium deposition of osteoblasts (in words): increases the calcium deposition of osteoblasts obviously

## O=c1c2cc(Cl)ccc2[se]n1-c1ccc(CC(O)(P(=O)(O)O)P(=O)(O)O)cc1 [SC-10, 4-(3-carbonyl-5-chlorobenzo[d][1,2]selenazole-2(3H))-benzyl-1-hydroxyl-methylene diphosphonic acid]
[1]
  calcium deposition of osteoblasts (in words): increases the calcium deposition of osteoblasts obviously

Source: US9045506B2, “Diphosphonate compound and a method for preparing the same and an application of the same” (Chengdu Yunke Pharmaceutical Co., Ltd., priority 2010, dated 2015)
